Results reported in patent US10028482B2, “Disinfecting and deodorizing compositions and methods with novel polymeric binding system” (priority 2014, dated 2018).

Key:
[1] = Retention of chlorine in air dried coatings on hard surface substrate (iodometric titration); format: physicochemical; details: Formica coupons
Description: The purpose of this experiment was to measure the effect of binder plus SHA on retention of chlorine in air dried coatings of water-based N-halamine formulations on a hard surface substrate. The procedure used one gram of MCDMH with or without 0.2 grams of hydroxyethylcellulose binder and 0.1 grams of SHA dissolved in 100 ml of water as the surface treatments. Solutions of MCDMH, MCDMH plus binder and SHA containing equivalent amounts of oxidative chlorine were applied to 9 cm^2 of hard surface substrate (Formica coupons), and allowed to dry at room temperature in a chemical fume hood. Determinations of chlorine levels per cm^2 were made on coupons sampled after 4 hours, 24 hours, 48 hours, and 96 hours. The chlorine remaining on each surface was measured by iodometric titration of solutions obtained after soaking of test samples in deionized water for 1 hour at room temperature.

[2] = Retention of chlorine in air dried coatings on soft surface substrates (iodometric titration); format: physicochemical
From the text: The purpose of this experiment was to measure the beneficial effect of binder plus SHA on retention of chlorine in air dried coatings of N-halamine formulations on a soft surface substrate. Solutions of MCDMH, MCDMH plus hydroxyethylcellulose binder plus SHA, each containing equivalent amounts of oxidative Cl were applied to 9 cm^2 of soft surface substrate (cotton fabrics or paper), and allowed to air dry at room temperature in a chemical fume hood. Determinations of chlorine per cm^2 were made on fabrics sampled after 4 hours, 24 hours, 48 hours, and 96 hours. The remaining chlorine was measured by iodometric titration after soaking of test samples in deionized water for 1 hour at room temperature.

CC1(C)NC(=O)N(Cl)C1=O [MCDMH]
Chlorine Content ([1]; 4 h): 3.61 ×10^18 Cl/cm^2 | Chlorine Content ([1]; 24 h): 3.25 ×10^18 Cl/cm^2 | Chlorine Content ([1]; 48 h): 3.01 ×10^18 Cl/cm^2 | Chlorine Content ([1]; 96 h): 2.75 ×10^18 Cl/cm^2 | Chlorine Content ([2]; Cotton, 4 h): 2.41 ×10^18 Cl/cm^2 | Chlorine Content ([2]; Cotton, 24 h): 2.04 ×10^18 Cl/cm^2 | Chlorine Content ([2]; Cotton, 48 h): 1.56 ×10^18 Cl/cm^2 | Chlorine Content ([2]; Cotton, 96 h): 0.89 ×10^18 Cl/cm^2 | Chlorine Content ([2]; Paper, 4 h): 2.74 ×10^18 Cl/cm^2 | Chlorine Content ([2]; Paper, 24 h): 2.12 ×10^18 Cl/cm^2 | Chlorine Content ([2]; Paper, 48 h): 1.87 ×10^18 Cl/cm^2 | Chlorine Content ([2]; Paper, 96 h): 1.04 ×10^18 Cl/cm^2
